Laboratory results from ChEMBL document CHEMBL1201862, “PubChem BioAssay data set” (2004).
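Five concentrations, 48 hours, 96-well plates. GI50 is the concentration that inhibits growth by half.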 Calls of active or inactive are those of the source. Cut-off read from the data, not from the text of the source: active = GI50 up to about 1.1 µM and inactive = higher.

Columns and labels:
Assay in all cases: DTP human tumour cell line panel, 48 h
OVCAR-4 = test system: OVCAR-4
PC-3 = test system: PC-3
TK-10 = test system: TK-10
BT-549 = test system: BT-549
HCT-15 = test system: HCT-15
SR = test system: SR
SF-295 = test system: SF-295
Hs-578T = test system: Hs-578T
MOLT-4 = test system: MOLT-4
OVCAR-3 = test system: OVCAR-3
NCI-H460 = test system: NCI-H460
RPMI-8226 = test system: RPMI-8226
CCRF-CEM = test system: CCRF-CEM
NCI-H226 = test system: NCI-H226
SW-620 = test system: SW-620
SN12C = test system: SN12C
COLO 205 = test system: COLO 205
NCI-H23 = test system: NCI-H23
A549 = test system: A549
MDA-N = test system: MDA-N
ACHN = test system: ACHN
HCC 2998 = test system: HCC 2998
786-0 = test system: 786-0
NCI/ADR-RES = test system: NCI/ADR-RES
SF-539 = test system: SF-539
SF-268 = test system: SF-268
K562 = test system: K562
EKVX = test system: EKVX
HCT-116 = test system: HCT-116
SK-OV-3 = test system: SK-OV-3
SK-MEL-5 = test system: SK-MEL-5
KM12 = test system: KM12
SK-MEL-28 = test system: SK-MEL-28
OVCAR-5 = test system: OVCAR-5
SNB-75 = test system: SNB-75
HT-29 = test system: HT-29
A498 = test system: A498
MDA-MB-231 = test system: MDA-MB-231
SNB-19 = test system: SNB-19
OVCAR-8 = test system: OVCAR-8
UACC-62 = test system: UACC-62
T47D = test system: T47D
HL-60 = test system: HL-60
UACC-257 = test system: UACC-257
HOP-62 = test system: HOP-62
U-251 = test system: U-251
UO-31 = test system: UO-31
CAKI-1 = test system: CAKI-1
Malme-3M = test system: Malme-3M
LOX IMVI = test system: LOX IMVI
DU-145 = test system: DU-145
RXF 393 = test system: RXF 393
MCF7 = test system: MCF7
IGROV-1 = test system: IGROV-1
M14 = test system: M14
NCI-H522 = test system: NCI-H522
SK-MEL-2 = test system: SK-MEL-2
MDA-MB-435 = test system: MDA-MB-435
HOP-92 = test system: HOP-92

Measured: GI50

O=C1NN=C(O)C2C3c4ccccc4C(c4ccccc43)C12 (centres undefined)
> 100 µM: HCT-15
inactive: OVCAR-4 > 100 µM | PC-3 > 100 µM | TK-10 > 100 µM | BT-549 > 100 µM | SR > 100 µM | SF-295 > 100 µM | Hs-578T > 100 µM | MOLT-4 > 100 µM | OVCAR-3 > 100 µM | NCI-H460 > 100 µM | RPMI-8226 > 100 µM | CCRF-CEM > 100 µM | NCI-H226 > 100 µM | SW-620 > 100 µM | SN12C > 100 µM | COLO 205 > 100 µM | NCI-H23 > 100 µM | A549 > 100 µM | MDA-N > 100 µM | ACHN > 100 µM | HCC 2998 > 100 µM | 786-0 > 100 µM | NCI/ADR-RES > 100 µM | SF-539 > 100 µM | SF-268 > 100 µM | K562 > 100 µM | EKVX > 100 µM | HCT-116 > 100 µM | SK-OV-3 > 100 µM | SK-MEL-5 > 100 µM | KM12 > 100 µM | SK-MEL-28 > 100 µM | OVCAR-5 > 100 µM | SNB-75 > 100 µM | HT-29 > 100 µM | A498 > 100 µM | MDA-MB-231 > 100 µM | SNB-19 > 100 µM | OVCAR-8 > 100 µM | UACC-62 > 100 µM | T47D > 100 µM | HL-60 > 100 µM | UACC-257 > 100 µM | HOP-62 > 100 µM | U-251 > 100 µM | UO-31 > 100 µM | CAKI-1 > 100 µM | Malme-3M > 100 µM | LOX IMVI > 100 µM | DU-145 > 100 µM | RXF 393 > 100 µM | MCF7 > 100 µM | IGROV-1 > 100 µM | M14 > 100 µM

CC(C)C1OC(=O)C=C1Sc1ccccc1 (centres undefined)
inactive: OVCAR-4 > 100 µM | PC-3 > 100 µM | TK-10 > 100 µM | BT-549 > 100 µM | NCI-H522 > 100 µM | SR > 100 µM | SK-MEL-2 > 100 µM | SF-295 > 100 µM | Hs-578T > 100 µM | MOLT-4 > 100 µM | OVCAR-3 > 100 µM | NCI-H460 > 100 µM | RPMI-8226 > 100 µM | CCRF-CEM > 100 µM | NCI-H226 > 100 µM | SW-620 > 100 µM | SN12C > 100 µM | COLO 205 > 100 µM | A549 > 100 µM | MDA-N > 100 µM | ACHN > 100 µM | HCC 2998 > 100 µM | 786-0 > 100 µM | SF-539 > 100 µM | SF-268 > 100 µM | K562 > 100 µM | EKVX > 100 µM | HCT-116 > 100 µM | SK-OV-3 > 100 µM | SK-MEL-5 > 100 µM | KM12 > 100 µM | SK-MEL-28 > 100 µM | OVCAR-5 > 100 µM | SNB-75 > 100 µM | HT-29 > 100 µM | A498 > 100 µM | MDA-MB-231 > 100 µM | SNB-19 > 100 µM | OVCAR-8 > 100 µM | UACC-62 > 100 µM | T47D > 100 µM | HL-60 > 100 µM | UACC-257 > 100 µM | HOP-62 > 100 µM | U-251 > 100 µM | CAKI-1 > 100 µM | Malme-3M 80.7 µM | LOX IMVI > 100 µM | DU-145 > 100 µM | RXF 393 > 100 µM | MCF7 > 100 µM | IGROV-1 > 100 µM | MDA-MB-435 > 100 µM | M14 > 100 µM
> 100 µM: HCT-15

COc1ccc(-c2oc3cc(OC)ccc3c(=O)c2O)cc1
active: BT-549 0.668 µM
inactive: OVCAR-4 3.88 µM | PC-3 > 100 µM | TK-10 > 100 µM | NCI-H522 3.18 µM | SR 3.57 µM | SF-295 4.79 µM | Hs-578T 1.54 µM | MOLT-4 2.66 µM | NCI-H460 3.37 µM | RPMI-8226 > 23.1 µM | COLO 205 > 100 µM | MDA-N > 100 µM | HCC 2998 > 10 µM | 786-0 9.02 µM | SF-268 5.13 µM | EKVX > 100 µM | HCT-116 4.15 µM | SK-MEL-5 > 100 µM | SK-MEL-28 > 25.4 µM | HT-29 > 100 µM | A498 > 100 µM | MDA-MB-231 43.4 µM | HOP-92 3.42 µM | SNB-19 > 100 µM | UACC-62 5.19 µM | T47D 9.42 µM | UACC-257 > 100 µM | HOP-62 3.7 µM | U-251 3.31 µM | CAKI-1 2.53 µM | Malme-3M > 31.6 µM | LOX IMVI 4.12 µM | RXF 393 3.15 µM | MCF7 3.43 µM | IGROV-1 4.25 µM | MDA-MB-435 > 27.7 µM | M14 > 25.5 µM
3.63 µM: HCT-15
